# Measured values published in patent US5215964A, “Peptides useful in regulating the immune and nervous systems” (Immunobiology Research Institute, Inc., priority 1991, dated 1993).
# Ends that are not written are not given here. Peptide text beside a SMILES is read from it. * marks the point of attachment. Decanoyl = CCCCCCCCCC(=O)*
# Columns and labels:
# MOLT-4 T cell line = experiment: Cyclic GMP assay, MOLT-4 cell line; format: cell-based, human; details: positive = cyclic GMP greater than 2 standard deviations above parallel negative control; peptide 1, 10, 100 μg/mL
# Excerpt: This assay measures the ability of a peptide of this invention to bind to the cell membrane receptor of the intact MOLT-4 cell and selectively stimulate production of cyclic GMP, as does human thymopoietin.
# The MOLT-4 cell line was obtained from the American Type Culture Collection of Rockville, Md. MOLT-4 cells were freshly seeded and grown for 3 days with harvesting as described in T. Audhya et al, Arch. Biochem Biophys., 234: 167-177 (1984). The cells were washed 3 times in PBS and resuspended in RPMI 1640 at a concentration of […]; cells/ml and were allowed to equilibrate at 37° C. for 30 minutes before the addition of the test pentapeptides or control peptides, in 25 μl to yield a final concentration of 1, 10, and 100 μg/mL. The incubation was allowed to proceed in a shaking water bath for 4-5 minutes and was then terminated by addition of 1 ml ice-cold TCA (10 percent in H2 O).
# The cells in TCA were homogenized and sonicated to release cyclic nucleotide. The suspension was centrifuged at 3000×g for 20 minutes at 4° C. The resulting precipitate was dissolved in 0.1N NaOH to determine the protein content. […]
# A threshold activity was determined for each peptide tested. […] Test results were considered positive if the level of cyclic GMP was greater than […] that determined for the parallel negative control.
# CEM T cell line = experiment: Cyclic GMP assay, CEM cell line; format: cell-based, human; details: positive = cyclic GMP greater than 2 standard deviations above parallel negative control; peptide 1, 10, 100 μg/mL
# γ TP receptor = experiment: Neuromuscular (electromyographic) assay; format: in vivo; details: i.v. or s.c. in mice, electromyography 18 hours after administration
# Method: The neuromuscular assay is performed to determine the effect, if any, of different peptides and dosages of peptides on the γ TP receptor according to the invention. This assay is carried out as follows. Various doses of a selected peptide of this invention, prepared as described in the preceding examples, are dissolved in normal saline and injected either intravenously (i.v.) or subcutaneously (s.c.) into mice (or other selected laboratory animals). The electromyographic assay is performed according to G. Goldstein et al, J. Jeurol. and Neurosurg. Physchiat., 31:453-459 (1968) 18 hours after administration of the peptide.
# Mice of either sex, weighing […], are anesthetized with 150 μl of 5% sodium pentobarbital (Abbott Laboratories, Chicago, Ill.). The nerve is stimulated with a Grass S-48 stimulator and a Grass SIV-5A stimulus isolation unit (Grass Instrument Co., Quincy, Mass.) and the electromyographic response is recorded with a Tektronix storage oscilloscope-5111 coupled to a 5A21N differential amplifier and a 5B10N time base (Tektronix, Beaverton, Oreg.).
# Groups of five or more mice are used for each experiment. […] The mean, standard deviation and statistical significance of differences between experimental animals and controls are assessed by one-way analysis of variance based on ratio. […]
# in vitro = details: rat, real gastrointestinal fluid or homogenate, pH 5.5
# Method: (§1) A rat duodenum was opened and attached to a 3.5 mL diffusion cell [Crownglass, N.J.] with buffer in both chambers. The selected test peptide in phosphate buffer (pH 5.5) was applied to both the cells to a final concentration of 1 mg/mL, and samples were taken at 0, 2 and 4 hours. The aliquots were subjected to high performance liquid chromatography (HPLC) with ultraviolet detection at 220 nm. The solvent system for thymopentin was phosphate buffer and methanol.
# [1] = Enzymatic stability, duodenum in diffusion cell; details: for intact peptide: rat duodenum, phosphate buffer pH 5.5, 1 mg/mL
# Method: as §1
compound,measurement,setting,value
CCCCCCCCCC(=O)N[C@@H](CCCNC(=N)N)C(=O)N1CCC[C@H]1C(=O)N[C@@H](CC(=O)O)C(=O)N1CCC[C@H]1C(=O)N[C@@H](Cc1ccccc1)C(N)=O [Decanoyl-Arg-Pro-Asp-Pro-Phe-NH2] (Decanoyl-RPDPF-NH2),inducing increased cGMP levels in the human MOLT-4 T cell line (β),MOLT-4 T cell line,positive
same,inducing increased cGMP levels in the human CEM T cell line (α),CEM T cell line,positive
same,thymopoietin/thymopentin-like results on the neuromuscular assay (γ),γ TP receptor,γ-positive
Ac-RPDPF-NH2 [Acetyl-Arg-Pro-Asp-Pro-Phe-NH2],"remaining at 2 h, 1 mg/mL",in vitro,~100%
same,"remaining at 4 h, 1 mg/mL",in vitro,~90%
Ac-RPTPF-NH2 [Acetyl-Arg-Pro-Thr-Pro-Phe-NH2],inducing increased cGMP levels in the human CEM T cell line (α),CEM T cell line,positive
Ac-RPTPY-NH2 [Acetyl-Arg-Pro-Thr-Pro-Tyr-NH2],inducing increased cGMP levels in the human CEM T cell line (α),CEM T cell line,positive
"RKDVY [TP-5, thymopentin]",intact peptide,[1]; 0 hours,100%
same,intact peptide,[1]; 4 hours,negligible
same,"remaining at 2 h, 1 mg/mL","[1]; rat, rat duodenum mounted in a diffusion cell, pH 5.5",20%
